Laboratory results: PMC12455570 (2025)

System: FAM-(CUG)10-BHQ (RNA, repeat) GCGCUGCUGCUGCUGCUGCUGAAAAGCUGCUGCUGCUGCUGCGC
Assay: FAM/BHQ fluorescence thermal melting
Conditions: 5 μM compound

ΔTm: 3.1 ± 0.7 °C
SMILES: CC1CCCn2cc(-c3cccc(NC(=O)CCCCCCNCCCCNCCCCCCC(=O)Nc4cccc(-c5cn6c(n5)C(C)CCC6)c4)c3)nc21 (stereo not shown)
